{
  "source": "patent US11572358B2",
  "about": "“Solid forms of an sGC stimulator” (Cyclerion Therapeutics, Inc., priority 2016, dated 2023)",
  "assay": "Storage stability at 40° C. and 75% relative humidity, XRPD trace before and after",
  "assay_type": "physicochemical",
  "conditions": "stored for 14 months at 40° C. and 75% relative humidity",
  "procedure": "When comparing XRPD spectra, a spectrum will be “substantially similar” to one shown in this disclosure for a particular solid form of Compound I, wherein the characteristic peaks in said spectrum are measured at the same values of °2θ as those shown in the figure of this disclosure, or within a range of + or −0.5 units of °2θ from those peaks shown in said figure.\nX-Ray Powder Diffraction traces were obtained using a D8 Advance, Bruker apparatus; using one of two Methods:\nScan 5-45° 2-theta, 0.02° step size, 1 sec per step; or\nScan 3-40° 2-theta, 0.037° step size, 1.5 sec per step",
  "data": [
    {"smiles": "NC(=O)[C@](O)(CNc1nc(-c2cc(-c3ccon3)n(Cc3ccccc3F)n2)ncc1F)C(F)(F)F", "note": "[Form B, (R)-3,3,3-trifluoro-2-(((5-fluoro-2-(1-(2-fluorobenzyl)-5-(isoxazol-3-yl)-1H-pyrazol-3-yl)pyrimidin-4-yl)amino)methyl)-2-hydroxypropanamide]", "values": [
      {"measurement": "XRPD trace after storage", "result": "essentially unchanged"}
    ]}
  ]
}
